What was measured:
[1] = system: luciferase light signal from pIB102EL (yopE-luxAB, wild-type); experiment: microbe, parasite or virus in culture; assay type: cell-based, Yersinia pseudotuberculosis; details: for Inhibition (%) of the luciferase light signal: strain pIB102EL, Table 2C; for inhibition at 5 µM / inhibition at 10 µM / inhibition at 20 µM / inhibition at 50 µM / inhibition at 100 µM: Yersinia pseudotuberculosis, read-out: Inhibition (%) of the luciferase light signal
[2] = system: luciferase light signal from pIB29EL (yopE-luxAB); experiment: microbe, parasite or virus in culture; assay type: cell-based, Yersinia pseudotuberculosis

Row | Structure (SMILES) | Inhibition (%) of the luciferase light signal ([1]; 5 μM) | Inhibition (%) of the luciferase light signal ([1]; 10 μM) | Inhibition (%) of the luciferase light signal ([1]; 20 μM) | Inhibition (%) of the luciferase light signal ([1]; 50 μM) | Inhibition (%) of the luciferase light signal ([1]; 100 μM) | further results
1 | Nc1ccc(C(=O)N/N=C/c2cc(I)cc(I)c2O)cc1 [Compound 40] | 3% | 11% | 18% | 41% | 50% | –
2 | O=C(N/N=C/c1cc(I)cc(I)c1O)c1ccc([N+](=O)[O-])cc1 [Compound 41] | 3% | 13% | 33% | 48% | 44% | –
3 | NC(=O)C(=O)N/N=C/c1cc(Br)ccc1O [Compound 22] | – | – | – | – | – | inhibition at 5 µM [1]: 0%; inhibition at 10 µM [1]: 4%; inhibition at 20 µM [1]: 24%; inhibition at 50 µM [1]: 66%; inhibition at 100 µM [1]: 82%
4 | O=C(N/N=C/c1cc(Cl)cc(Cl)c1O)c1ccccc1 [Compound 35] | 0% | 0% | 5% | 21% | 43% | –
5 | O=C(N/N=C/c1ccc(O)c(O)c1O)c1ccccc1 [Compound 36] | 5% | 10% | 15% | 24% | 54% | –
6 | CCN(CC)c1ccc(/C=N/NC(=O)c2cccnc2)c(O)c1 [Compound 37] | – | – | – | – | – | inhibition at 5 µM [1]: 5%; inhibition at 10 µM [1]: 8%; inhibition at 20 µM [1]: 21%; inhibition at 50 µM [1]: 30%; inhibition at 100 µM [1]: 32%
7 | CC(=NNC(=O)c1cccnc1)c1cc(Br)cc(Br)c1O [Compound 39] | 0% | 3% | 4% | 13% | 24% | –
8 | O=C(N/N=C/c1ccc(O)cc1O)c1ccc([N+](=O)[O-])cc1 [Compound 38] | 4% | 10% | 13% | 23% | 36% | –
9 | [H]/N=C(/N)N[C@H]1[C@H](O)[C@@H](O)[C@H](O[C@@H]2O[C@@H](C)[C@](O)(C=O)[C@H]2O[C@@H]2O[C@@H](CO)[C@H](O)[C@@H](O)[C@@H]2NC)[C@@H](N/C(N)=N\[H])[C@@H]1O [Streptomycin, reference compound] | – | – | – | – | – | IC50 ([2]; Yersinia pseudotuberculosis, read-out: IC50 (concentration resulting in 50% reduction of luciferase light emission)): 4 µM; Inhibition of light-emission (in words) ([2]; known antibiotics, pIB29EL): dose-dependent inhibition of light-emission
10 | O=C(N/N=C/c1cc(O)ccc1O)c1ccco1 [Compound 12] | – | – | – | – | – | Inhibition (%) of the luciferase light signal ([2]; 10 μM, pIB29EL, Table 2A): 12%; Inhibition (%) of the luciferase light signal ([2]; 20 μM, pIB29EL, Table 2A): 16%; Inhibition (%) of the luciferase light signal ([2]; 50 μM, pIB29EL, Table 2A): 41%; Inhibition (%) of the luciferase light signal ([2]; 100 μM, pIB29EL, Table 2A): 65%
11 | Nc1ccc(C(=O)N/N=C/c2c(O)ccc3ccccc23)cc1 [Compound 44] | 3% | 10% | 15% | 23% | 30% | –
12 | O=C(N/N=C/c1ccc(O)cc1O)c1cc2ccccc2cc1O [Compound 13] | – | – | – | – | – | Inhibition (%) of the luciferase light signal ([2]; 10 μM, pIB29EL, Table 2A): 26%; Inhibition (%) of the luciferase light signal ([2]; 20 μM, pIB29EL, Table 2A): 47%; Inhibition (%) of the luciferase light signal ([2]; 50 μM, pIB29EL, Table 2A): 69%; Inhibition (%) of the luciferase light signal ([2]; 100 μM, pIB29EL, Table 2A): 73%
13 | O=C(Nc1ccc([N+](=O)[O-])cc1Cl)c1cc(Cl)ccc1O [Compound 55] | – | – | – | – | – | Inhibition (%) of the luciferase light signal ([2]; 5 μM, strain pIB29EL, Table 2C): 85%; Inhibition (%) of the luciferase light signal ([2]; 10 μM, strain pIB29EL, Table 2C): 96%; Inhibition (%) of the luciferase light signal ([2]; 20 μM, strain pIB29EL, Table 2C): 96%; Inhibition (%) of the luciferase light signal ([2]; 50 μM, strain pIB29EL, Table 2C): 94%; Inhibition (%) of the luciferase light signal ([2]; 100 μM, strain pIB29EL, Table 2C): 94%

Reference: patent US7351861B2 (priority 2002, dated 2008)
